ChEMBL document CHEMBL5365540, “Structure-activity relationship studies and biological properties evaluation of peptidic NRP-1 ligands: Investigation of N-terminal cysteine importance” (Bioorg Med Chem, 2023)
Calls of active or inactive are those of the source. No cut-off for these calls is given here. Where a SMILES comes first, the peptide text is derived from it.

How the values were obtained:
MDA-MB-231 [1] = assay: Increase in NRP-1 expression in human MDA-MB-231 cell membrane at 72 uM preincubated for 15 mins at 4 degC followed by compound washout and further incubated for 60 mins with subsequent addition of compound at 37 degC by FITC-streptavidin staining based flow cytometry analysis; format: functional; conditions: time 75.0 min
[2] = Stability in human serum assessed as parent compound remaining measured after 12 hrs by LC-SWATH-MS analysis; format: ADME, cell-free; conditions: read-out: Stability
MDA-MB-231 [3] = assay: Increase in NRP-1 expression in human MDA-MB-231 cell membrane at 7.2 uM preincubated for 15 mins at 4 degC followed by compound washout and further incubated for 60 mins with subsequent addition of compound at 37 degC by FITC-streptavidin staining based flow cytometry analysis; format: functional; conditions: time 75.0 min
MDA-MB-231 [4] = assay: Increase in NRP-1 expression in human MDA-MB-231 cell membrane at 72 uM preincubated for 15 mins at 4 degC followed by compound washout and further incubated for 5 mins with subsequent addition of compound at 37 degC by FITC-streptavidin staining based flow cytometry analysis; format: functional; conditions: time 20.0 min
NRP2-VEGA = molecular target: T1, NRP2-VEGA (Homo sapiens, UniProt O60462+P15692); assay: Inhibition of human biotinylated-VEGFA165 binding to recombinant human NRP-2 measured after 2 hrs by chemiluminescent based ELISA; format: protein-complex assay
T1 sequence (P15692 whole entry): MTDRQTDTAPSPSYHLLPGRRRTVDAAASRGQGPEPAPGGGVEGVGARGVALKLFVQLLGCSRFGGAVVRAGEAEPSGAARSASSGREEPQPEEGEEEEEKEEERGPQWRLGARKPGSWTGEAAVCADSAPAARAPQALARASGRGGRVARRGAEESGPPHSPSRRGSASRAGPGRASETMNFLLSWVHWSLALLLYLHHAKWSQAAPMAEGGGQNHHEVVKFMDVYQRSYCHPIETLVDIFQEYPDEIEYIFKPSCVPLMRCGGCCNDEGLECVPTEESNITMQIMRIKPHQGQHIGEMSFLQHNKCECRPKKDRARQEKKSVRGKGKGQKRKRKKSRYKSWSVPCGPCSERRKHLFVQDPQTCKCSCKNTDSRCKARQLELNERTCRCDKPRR
T1 sequence (O60462 whole entry): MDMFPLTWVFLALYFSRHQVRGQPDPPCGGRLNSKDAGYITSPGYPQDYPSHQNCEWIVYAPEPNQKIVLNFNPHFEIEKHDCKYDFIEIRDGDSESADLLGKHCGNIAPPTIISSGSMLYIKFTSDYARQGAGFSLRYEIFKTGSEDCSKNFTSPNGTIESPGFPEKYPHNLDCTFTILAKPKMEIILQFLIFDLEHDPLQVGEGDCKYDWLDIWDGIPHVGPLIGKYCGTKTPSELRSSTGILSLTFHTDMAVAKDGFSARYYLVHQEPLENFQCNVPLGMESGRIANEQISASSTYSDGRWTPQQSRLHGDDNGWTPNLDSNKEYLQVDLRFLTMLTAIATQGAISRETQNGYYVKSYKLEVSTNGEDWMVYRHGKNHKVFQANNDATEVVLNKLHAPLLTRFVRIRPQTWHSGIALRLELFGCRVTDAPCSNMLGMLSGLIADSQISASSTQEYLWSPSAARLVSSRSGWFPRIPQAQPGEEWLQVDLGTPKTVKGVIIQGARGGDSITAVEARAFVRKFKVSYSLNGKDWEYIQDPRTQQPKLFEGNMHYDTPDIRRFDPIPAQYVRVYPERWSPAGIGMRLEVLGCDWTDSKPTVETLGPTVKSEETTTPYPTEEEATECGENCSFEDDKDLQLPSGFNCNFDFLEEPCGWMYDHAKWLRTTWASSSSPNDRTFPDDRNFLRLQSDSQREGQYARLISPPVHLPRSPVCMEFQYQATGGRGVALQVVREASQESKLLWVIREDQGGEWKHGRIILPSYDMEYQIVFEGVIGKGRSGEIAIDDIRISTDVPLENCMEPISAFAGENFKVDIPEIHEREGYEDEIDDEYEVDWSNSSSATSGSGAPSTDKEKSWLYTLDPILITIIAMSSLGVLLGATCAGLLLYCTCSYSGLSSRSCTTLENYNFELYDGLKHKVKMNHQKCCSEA

[5] = Half-life in human serum by LC-SWATH-MS analysis; format: ADME, cell-free
[6] = molecular target: VEGFR2-VEGA (Homo sapiens) (UniProt P15692+P35968); assay: Inhibition of human biotinylated-VEGFA165 binding to recombinant human VEGFR2 measured after 2 hrs by chemiluminescent based ELISA; format: protein-complex assay
Homo sapiens = species: Homo sapiens; assay: Selectivity ratio of IC50 for inhibition of human biotinylated-VEGFA165 binding to recombinant human NRP-1 to IC50 for inhibition of human biotinylated-VEGFA165 binding to recombinant human NRP-2
[7] = molecular target: VEGFR1-VEGA (Homo sapiens) (UniProt P15692+P17948); assay: Inhibition of human biotinylated-VEGFA165 binding to recombinant human VEGFR1 measured after 2 hrs by chemiluminescent based ELISA; format: protein-complex assay
VEGA-NRP1 = VEGA-NRP1 (Homo sapiens, UniProt O14786); assay: Inhibition of human biotinylated-VEGFA165 binding to recombinant human NRP-1 measured after 2 hrs by chemiluminescent based ELISA; format: protein assay
VEGA-NRP1, sequence (O14786 whole entry, one chain of several): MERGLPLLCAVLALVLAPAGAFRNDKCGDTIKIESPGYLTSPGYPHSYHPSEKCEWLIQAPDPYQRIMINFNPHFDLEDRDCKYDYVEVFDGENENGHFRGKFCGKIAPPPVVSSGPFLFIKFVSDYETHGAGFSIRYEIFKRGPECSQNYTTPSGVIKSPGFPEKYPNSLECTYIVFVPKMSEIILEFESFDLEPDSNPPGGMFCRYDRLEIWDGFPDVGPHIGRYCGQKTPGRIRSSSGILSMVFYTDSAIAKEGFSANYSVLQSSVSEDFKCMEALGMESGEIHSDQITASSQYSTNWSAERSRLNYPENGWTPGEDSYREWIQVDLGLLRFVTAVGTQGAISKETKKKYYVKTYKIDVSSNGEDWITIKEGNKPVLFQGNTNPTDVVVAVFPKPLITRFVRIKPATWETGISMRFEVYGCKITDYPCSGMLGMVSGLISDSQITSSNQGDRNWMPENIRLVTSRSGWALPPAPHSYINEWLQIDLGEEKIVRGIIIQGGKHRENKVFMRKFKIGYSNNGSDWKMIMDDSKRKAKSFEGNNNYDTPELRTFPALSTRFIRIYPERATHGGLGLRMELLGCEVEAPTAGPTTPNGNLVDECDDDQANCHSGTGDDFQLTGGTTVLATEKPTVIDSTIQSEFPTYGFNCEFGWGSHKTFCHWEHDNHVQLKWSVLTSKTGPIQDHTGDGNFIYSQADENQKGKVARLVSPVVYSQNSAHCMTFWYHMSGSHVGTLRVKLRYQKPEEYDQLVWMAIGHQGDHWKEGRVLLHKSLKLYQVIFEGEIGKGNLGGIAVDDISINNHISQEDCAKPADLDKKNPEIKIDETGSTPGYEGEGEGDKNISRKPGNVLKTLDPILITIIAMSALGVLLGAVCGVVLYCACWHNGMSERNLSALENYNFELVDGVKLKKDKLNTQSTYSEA

[8] = Stability in human serum assessed as compound degradation measured upto 96 hrs by LC-SWATH-MS analysis; format: ADME, cell-free
[9] = Stability in human serum assessed as parent compound remaining measured after 8 hrs by LC-SWATH-MS analysis; format: ADME, cell-free; conditions: read-out: Stability
[10] = Stability in human serum assessed as parent compound remaining measured after 24 hrs by LC-SWATH-MS analysis; format: ADME, cell-free; conditions: read-out: Stability

Compound	Activity (MDA-MB-231 [1])	remaining at 12 h [2] [%]	Activity (MDA-MB-231 [3])	Activity (MDA-MB-231 [4])	IC50 (NRP2-VEGA; read-out: IC50) [nM]	IC50 (NRP2-VEGA; read-out: pIC50 (converted)) [nM]	half-life [5] [h]	inhibition [6]	Ratio IC50 (Homo sapiens)	inhibition [7]	IC50 (VEGA-NRP1; read-out: IC50) [nM]	IC50 (VEGA-NRP1; read-out: pIC50 (converted)) [nM]	Stability [8]	remaining at 8 h [9] [%]	remaining at 24 h [10] [%]
N=C(N)NCCCC[C@H](N)C(=O)NCCCC[C@H](NC(=O)[C@@H](N)CS)C(=O)N[C@@H](CCN)C(=O)N1C2CCCCC2C[C@H]1C(=O)N[C@@H](CCCNC(=N)N)C(=O)O (some centres not stated) (HELM PEPTIDE1{C.K.[Dab].[O=C([C@@H]1CC2CCCCC2N1[*:1])[*:2]].R}|PEPTIDE2{[N=C(N)NCCCC[C@H](N)C(=O)[*:2]]}$PEPTIDE1,PEPTIDE2,2:R3-1:R2$$$V2.0)	Active	61	Active	Active	43	475	~8	inactive	5	inactive	39	43.1	Unstable	–	–
N=C(N)NCCCC[C@H](NC(=O)[C@@H](N)CS)C(=O)NCCCC[C@H](N)C(=O)N[C@@H](CCN)C(=O)N1C2CCCCC2C[C@H]1C(=O)N[C@@H](CCCNC(=N)N)C(=O)O (some centres not stated) (HELM PEPTIDE1{K.[Dab].[O=C([C@@H]1CC2CCCCC2N1[*:1])[*:2]].R}|PEPTIDE2{C.[N=C(N)NCCCC[C@H](N[*:1])C(=O)[*:2]]}$PEPTIDE1,PEPTIDE2,1:R3-2:R2$$$V2.0)	Active	–	Active	Active	9	–	< 8	inactive	5	inactive	46	–	Unstable	47	–
N=C(N)NCCCC[C@H](N)C(=O)NCC[C@H](N)C(=O)N[C@@H](CCN)C(=O)N1C2CCCCC2C[C@H]1C(=O)N[C@@H](CCCNC(=N)N)C(=O)O (some centres not stated) (HELM PEPTIDE1{[Dab].[Dab].[O=C([C@@H]1CC2CCCCC2N1[*:1])[*:2]].R}|PEPTIDE2{[N=C(N)NCCCC[C@H](N)C(=O)[*:2]]}$PEPTIDE1,PEPTIDE2,1:R3-1:R2$$$V2.0)	–	–	–	–	–	–	–	–	–	–	–	2240	–	56	0
